≈ marks a conversion by molar mass, not a printed value. Read-outs that look alike come from different tables or passages of the source.
Columns and labels:
Format in all cases: cell-based
[1] = test system: Aspergillus flavus ATCC 204 304; assay: In vitro antifungal activity, filamentous fungi, NCCLS M38-A
Source text: (§1) The assay used for filamentous fungi (Aspergillus; Scedosporium; Fusarium) was that published by the National Committee for Clinical Laboratory Standards. 2002. Reference Method for Broth Dilution Antifungal Susceptibility Testing of Filamentous Fungi: Approved Standard. NCCLS document M38-A.Villanova, Pa., USA.

[2] = test system: Scedosporium prolificans 1-003-040; assay: as above
Source text: as §1

[3] = test system: Aspergillus terreus ATCC 03-232-378; assay: as above
Source text: as §1

[4] = test system: Scedosporium apiospermum 1-003-056; assay: as above
Source text: as §1

[5] = test system: Fusarium solani 04-132-4207; assay: as above
Source text: as §1

[6] = test system: Aspergillus fumigatus ATCC 204 305; assay: as above
Source text: as §1

[7] = test system: Cryptococcus neoformans ATCC 90112; assay: In vitro antifungal activity, yeasts, NCCLS M27-A; settings: Table 9
Source text: (§2) The assay used for yeasts (Candida; Cryptococcus) is that of the National Committee for Clinical Laboratory Standards. 1997. Reference Method for Broth Dilution Antifungal Susceptibility Testing of Yeasts: Approved Standard. NCCLS document M27-A.Villanova, Pa., USA as published in Ghannoum, M. A., A. S. Ibrahim, Y. Fu, M. C. Shafiq, J. E Edwards, Jr. and R. S. Criddle. 1992. Susceptibility testing of Cryptococcus neoformans: A microdilution technique. J. Clin. Microbiol. 30:2881-2886.

[8] = test system: Candida albicans ATCC 10231; assay: In vitro antifungal activity, yeasts, NCCLS M27-A; settings: Table 9
Source text: as §2

[9] = test system: Cryptococcus neoformans ATCC 90112; assay: Antifungal susceptibility testing, microdilution MIC; settings: Table 6; no visible growth after 72 h at 35° C.; read-out: MIC C. neof. ATCC 90112
Summary of the method: (§3)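 Standard microdilution method, run in duplicate, using serial dilutions of cationic compounds.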

[10] = test system: Candida albicans ATCC 10231; assay: as above; settings: Table 6; no visible growth after 48 h at 35° C.; read-out: MIC C. albicans ATCC 10231
Summary of the method: as §3

[11] = test system: ten randomly selected isolates of T. tonsurans; assay: Susceptibility of ten T. tonsurans isolates, broth microdilution NCCLS M38-P; settings: for MIC: Trichophyton tonsurans
Description: (§4) Isolates were tested using the method described in the National Committee for Clinical Laboratory Standards (NCCLS) document M38-P for filamentous fungi, with dermatophyte specific modifications described by Fernández-Torres et al, Current topics in Medical Mycology, 14-19 Feb. 1999.
(§5) Five dermatophyte isolates were, namely; T. rubrum, T. mentagrophytes, T. tonsurans, M. canis and M. gypseum, all of which produce lipases and some, phospholipase. These isolates were tested by the broth microdilution method according to NCCLS document M38-P, for activity against selected antifungal agents. In addition, ten randomly selected isolates of T. tonsurans were also tested. All isolates were maintained on SDA at 28° C. Candida parapsilosis (ATCC 20019) was used as the reference control is organism.
(§6) The microdilution plates used were a single lot of RPMI 1640 basal medium (JRH bioScience Inc. Lenexa, Kans., USA) with L-glutamine and without sodium bicarbonate, buffered to pH 7.0, at 25° C., with 0.165 M (MOPS) morpholinepropanesulfonic acid (Sigma).
(§7) Powdered drugs were dissolved in 100% dimethyl sulfoxide (DMSO), at concentrations 100 times higher than the final test concentration. All compounds were prepared in 100% (DMSO). For ITRA and TRB, two-fold drug dilutions were prepared in 100% DMSO at 100 times the final concentration, followed by further dilution 1:50 in RPMI medium, to yield 2× the final strength required for the test.
(§8) Fungal cultures were subcultured onto Potato Dextrose Agar and grown at 28° C. for 7-10 days. Fungal suspensions were covered with 5 ml of distilled water, and then colonies were scraped off with cotton tipped swabs. The resulting mixture of conidia and hyphae elements was withdrawn, transferred to a sterile tube and then vortexed with glass beads. After the particles settled, the upper homogeneous suspension was collected and its density adjusted by a densitometer to a 0.5 McFarland standard at the wavelength of 530 nm (80-85% transmittance). These stock suspensions were then diluted 1:50 with RPMI medium to obtain final working inoculum concentration ranging from 0.3×10^4 to 9×10^4 CFU/ml. Inoculum quantification was performed by plating 100 μl of the 1:1000 dilution of the adjusted inoculum on SDA plates, incubated at 28° C., and after 7 days of incubation, the colonies were counted.
(§9) Testing was based on NCCLS M38-P document for testing filamentous moulds. Testing was carried out in sterile 96-well flat bottomed microtitre plate. Columns 1 and 3 to 12 were filled with 100 μl of RPMI medium, leaving column 2 unfilled. Columns 1, 2 and 3 were filled with 100 μl of 2× drug concentration. Serial dilutions were then made by transferring 100 μl from column 3 to each column up to column 11, and 100 μl from column 11 was discarded. Column 12 served as drug free growth control. Finally, 100 μl of inoculum suspension was added to all wells except column 1, which acted as sterility control (Columns 1 and 12 served as sterility and growth control respectively). Plates were incubated at 28° C. for 7 days, and read at 3 days and 7 days of incubation. All testing was performed in duplicate, on three separate occasions.
(§10) Growth in microtitre trays were read by visual inspection by using an illuminated-reversed mirror. Growth in each well was compared with the “growth control” drug free well. The MIC end point for all the drugs was chosen to be the first well with 100% growth inhibition (i.e. the lowest drug concentration inhibiting growth).

M. canis = assay: Susceptibility of dermatophytes, broth microdilution NCCLS M38-P; settings: 100% growth inhibition, 28° C.; for MIC: Microsporum canis
Description: as §4, §5, §6, §7, §8, §9, §10

T. rubrum = assay: as above; settings: 100% growth inhibition, 28° C.; for MIC: Trichophyton rubrum
Description: as §4, §5, §6, §7, §8, §9, §10

T. mentagrophytes = assay: as above; settings: 100% growth inhibition, 28° C.; for MIC: Trichophyton mentagrophytes
Description: as §4, §5, §6, §7, §8, §9, §10

M. gypseum = assay: as above; settings: 100% growth inhibition, 28° C.; for MIC: Nannizzia gypsea
Description: as §4, §5, §6, §7, §8, §9, §10

T. tonsurans = assay: as above; settings: 100% growth inhibition, 28° C.; for MIC: Trichophyton tonsurans
Description: as §4, §5, §6, §7, §8, §9, §10

## C[C@@H]1[C@H](O)[C@@H](C)/C=C/C=C/C=C/C=C/C=C/C=C/C=C/[C@H](O[C@@H]2O[C@H](C)[C@@H](O)[C@H](N)[C@@H]2O)C[C@@H]2O[C@](O)(C[C@@H](O)C[C@@H](O)[C@H](O)CC[C@@H](O)C[C@@H](O)CC(=O)O[C@H]1C)C[C@H](O)[C@H]2C(=O)O [Amphotericin B, reference compound]
[1]
  MIC: 0.54 µM (≈ 0.499 µg/mL)
  MIC Aspergillus flavus ATCC 204 304: 0.50 µg/mL (≈ 0.541 µM)
[2]
  MIC: 4.3 µM (≈ 3.97 µg/mL)
  MIC Scedosporium prolificans 1-003-040: 4.0 µg/mL (≈ 4.33 µM)
[3]
  MIC: 1.1 µM (≈ 1.02 µg/mL)
  MIC Aspergillus terreus ATCC 03-232-378: 1.0 µg/mL (≈ 1.08 µM)
[4]
  MIC: 0.54 µM (≈ 0.499 µg/mL)
  MIC Scedosporium apiospermum 1-003-056: 0.50 µg/mL (≈ 0.541 µM)
[5]
  MIC: 0.27 µM (≈ 0.25 µg/mL)
  MIC Fusarium solani 04-132-4207: 0.25 µg/mL (≈ 0.271 µM)
[6]
  MIC: 0.54 µM (≈ 0.499 µg/mL)
  MIC Aspergillus fumigatus ATCC 204 305: 0.50 µg/mL (≈ 0.541 µM)
[7]
  MIC: 0.54 µM (≈ 0.499 µg/mL)
  MIC Cryptococcus neoformans ATCC 90112: 0.50 µg/mL (≈ 0.541 µM)
[8]
  MIC: 0.54 µM (≈ 0.499 µg/mL)
  MIC Candida albicans ATCC 10231: 0.50 µg/mL (≈ 0.541 µM)
[9]
  MIC: 0.55 µM (≈ 0.508 µg/mL)
[10]
  MIC: 1.1 µM (≈ 1.02 µg/mL)

## CN(C/C=C/C#CC(C)(C)C)Cc1cccc2ccccc12 [Terbinafine]
[11]; T. tonsurans 1
  MIC Range: 0.015 to 0.06 µg/mL
[11]; T. tonsurans 2
  MIC Range: 0.015 to 0.06 µg/mL
[11]; T. tonsurans 4
  MIC Range: 0.015 to 0.06 µg/mL
[11]; T. tonsurans 5
  MIC Range: 0.03 to 0.06 µg/mL
[11]; T. tonsurans 6
  MIC Range: 0.03 to 0.125 µg/mL
[11]; T. tonsurans 7
  MIC Range: 0.015 to 0.06 µg/mL
[11]; T. tonsurans 8
  MIC Range: 0.06 to 0.125 µg/mL
[11]; T. tonsurans 9
  MIC Range: 0.06 to 0.125 µg/mL
[11]; T. tonsurans 10
  MIC Range: 0.015 to 0.06 µg/mL
[11]; T.tonsurans 3
  MIC Range: 0.015 to 0.125 µg/mL
[11]; T. tonsurans 1, read-out: MIC GM
  MIC: 0.034 µg/mL (≈ 0.117 µM)
[11]; T. tonsurans 2, read-out: MIC GM
  MIC: 0.036 µg/mL (≈ 0.124 µM)
[11]; T. tonsurans 2, read-out: MIC Mean
  MIC: 0.041 µg/mL (≈ 0.141 µM)
[11]; T. tonsurans 4, read-out: MIC Mean
  MIC: 0.0275 µg/mL (≈ 0.0944 µM)
[11]; T. tonsurans 5, read-out: MIC GM
  MIC: 0.048 µg/mL (≈ 0.165 µM)
[11]; T. tonsurans 5, read-out: MIC Mean
  MIC: 0.05 µg/mL (≈ 0.172 µM)
[11]; T. tonsurans 6, read-out: MIC GM
  MIC: 0.061 µg/mL (≈ 0.209 µM)
[11]; T. tonsurans 6, read-out: MIC Mean
  MIC: 0.071 µg/mL (≈ 0.244 µM)
[11]; T. tonsurans 7, read-out: MIC GM
  MIC: 0.038 µg/mL (≈ 0.13 µM)
[11]; T. tonsurans 7, read-out: MIC Mean
  MIC: 0.045 µg/mL (≈ 0.154 µM)
[11]; T. tonsurans 8, read-out: MIC GM
  MIC: 0.068 µg/mL (≈ 0.233 µM)
[11]; T. tonsurans 8, read-out: MIC Mean
  MIC: 0.07 µg/mL (≈ 0.24 µM)
[11]; T. tonsurans 9, read-out: MIC GM
  MIC: 0.077 µg/mL (≈ 0.264 µM)
[11]; T. tonsurans 9, read-out: MIC Mean
  MIC: 0.081 µg/mL (≈ 0.278 µM)
[11]; T. tonsurans 10, read-out: MIC Mean
  MIC: 0.035 µg/mL (≈ 0.12 µM)
[11]; T.tonsurans 3, read-out: MIC GM
  MIC: 0.038 µg/mL (≈ 0.13 µM)
[11]; T.tonsurans 3, read-out: MIC Mean
  MIC: 0.051 µg/mL (≈ 0.175 µM)
[11]; read-out: MIC Mean, T. tonsurans 1
  MIC: 0.037 µg/mL (≈ 0.127 µM)
M. canis
  MIC Range, M. canis: 0.03 µg/mL (≈ 0.103 µM)
M. canis; read-out: MIC GM, M. canis
  MIC: 0.03 µg/mL (≈ 0.103 µM)
M. canis; read-out: MIC Mean, M. canis
  MIC: 0.03 µg/mL (≈ 0.103 µM)
T. rubrum
  MIC Range, T. rubrum: 0.007 to 0.06 µg/mL
T. rubrum; read-out: MIC GM, T. rubrum
  MIC: 0.026 µg/mL (≈ 0.0892 µM)
T. rubrum; read-out: MIC Mean, T. rubrum
  MIC: 0.032 µg/mL (≈ 0.11 µM)
T. mentagrophytes
  MIC Range, T. mentagrophyte: 0.03 to 0.06 µg/mL
T. mentagrophytes; read-out: MIC GM, T. mentagrophyte
  MIC: 0.034 µg/mL (≈ 0.117 µM)
T. mentagrophytes; read-out: MIC Mean, T. mentagrophyte
  MIC: 0.035 µg/mL (≈ 0.12 µM)
M. gypseum
  MIC Range, M. gypseum: 0.015 to 0.25 µg/mL
M. gypseum; read-out: MIC GM, M. gypseum
  MIC: 0.077 µg/mL (≈ 0.264 µM)
M. gypseum; read-out: MIC Mean, M. gypseum
  MIC: 0.122 µg/mL (≈ 0.419 µM)
T. tonsurans
  MIC Range, T. tonsurans: 0.015 to 0.06 µg/mL
T. tonsurans; read-out: MIC GM, T. tonsurans
  MIC: 0.024 µg/mL (≈ 0.0824 µM)
T. tonsurans; read-out: MIC Mean, T. tonsurans
  MIC: 0.03 µg/mL (≈ 0.103 µM)
